Values quoted from earlier work in article PMC4626739 (Toxins, 2015).

Kalata B1
resistance to chaotropic agents and proteases: extremely resistant
thermal stability: highly thermostable
